Source: ChEMBL document CHEMBL1201862, “PubChem BioAssay data set” (2004)
Active and inactive are the calls of the source.

Assays:
[1] = target: T1, Corticotropin-releasing factor receptor 2/Corticotropin-releasing factor-binding protein (Homo sapiens, UniProt P24387+Q13324); assay: activators of CRF receptor 2 with binding protein – uHTS hits, confirmation (AID 602473); format: functional; details: read-out: EC50_Mean
T1 sequence (Q13324 whole entry): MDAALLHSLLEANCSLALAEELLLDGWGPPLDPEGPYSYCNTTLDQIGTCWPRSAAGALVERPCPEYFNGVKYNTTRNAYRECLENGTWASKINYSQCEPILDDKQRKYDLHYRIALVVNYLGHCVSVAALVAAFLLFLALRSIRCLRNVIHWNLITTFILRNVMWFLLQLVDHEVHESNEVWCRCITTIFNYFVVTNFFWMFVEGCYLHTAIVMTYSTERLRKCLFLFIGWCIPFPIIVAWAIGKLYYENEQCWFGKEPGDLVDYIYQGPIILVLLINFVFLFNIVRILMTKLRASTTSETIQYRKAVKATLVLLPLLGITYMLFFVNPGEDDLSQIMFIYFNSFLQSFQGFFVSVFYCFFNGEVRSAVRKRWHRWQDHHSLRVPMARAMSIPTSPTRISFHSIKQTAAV
T1 sequence (P24387 whole entry): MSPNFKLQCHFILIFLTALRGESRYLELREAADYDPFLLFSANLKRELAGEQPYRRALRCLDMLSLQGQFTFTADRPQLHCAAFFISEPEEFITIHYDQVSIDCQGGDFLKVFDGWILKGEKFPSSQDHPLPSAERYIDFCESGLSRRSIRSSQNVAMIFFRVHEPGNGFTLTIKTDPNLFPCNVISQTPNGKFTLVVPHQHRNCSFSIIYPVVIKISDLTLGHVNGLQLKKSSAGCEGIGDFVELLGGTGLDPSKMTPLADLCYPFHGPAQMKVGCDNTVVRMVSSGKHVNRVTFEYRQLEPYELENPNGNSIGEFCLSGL

[2] = target: T2, Endoribonuclease toxin MazF (Escherichia coli K-12, UniProt P0AE70); assay: substrate-only fluorescence increase artefacts – biochemical, single-stranded RNase substrate, counter-screen for MazEF activator project, dose response (AID 588502); format: functional
[3] = target: T2, Endoribonuclease toxin MazF; assay: activation of MazEF endoribonuclease cleavage – biochemical, fluorescence, single-stranded RNA substrate, uHTS hits, dose response (AID 588481); format: functional
[4] = target: Cyclin-dependent kinase 2 (Homo sapiens, UniProt P24941); assay: inhibition of human CDK2/cyclin A – biochemical, cherry-picked samples, selectivity assay for Dyrk1A inhibitor project, dose response (AID 602127)
[5] = target: Dual specificity protein kinase CLK1 (Homo sapiens, UniProt P49759); assay: inhibition of human CLK1 activity – biochemical, cherry-picked samples, selectivity assay for Dyrk1A inhibitor project, dose response (AID 588811)
[6] = target: Dual specificity protein phosphatase 3 (Homo sapiens, UniProt P51452); assay: SAR VHR1 Fluorescent Assay for In Vitro dose response studies Set 3. [Related pubchem assays (depositor defined):AID1654, AID1661, AID1878]; format: functional
[7] = viability loss of HPDE-C7K cells – cell-based, fluorescence, HTS, primary screen (AID 431); format: functional; details: Homo sapiens
[8] = viability of HCT116 lacking mutant beta-catenin – cell-based, human colon tumor, dose response (AID 1045); format: functional;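 also: HCT116 colon tumor cells with beta catenin knocked out; cells exposed to compound for 60 hours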
[9] = HPDE-C7 pancreatic duct cell viability loss – fluorescence, HTS (AID 430); format: functional, cell-based; details: Homo sapiens
HEK293 = assay: EBV LMP1 TES2 canonical NF-kB signalling blockers – cell-based, HEK293, luciferase, cherry-pick, dose response (AID 588343); format: functional; details: Homo sapiens
[10] = viability of PTEN-deleted HCT116 cells – cell-based, HCT116 PTEN knockout, dose response (AID 1047); format: functional;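 also: HCT116 colon tumor cells with PTEN knocked out; cells exposed to compound for 60 hours before readout; potency for loss of cell viability measured by luminescence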
[11] = target: Latent membrane protein 1 (Human herpesvirus 4 (strain B95-8), UniProt P03230); assay: LMP1 TES1 pathway selectivity over dsRED control – imaging, HEK293T, dual-color eGFP/dsRED, cherry-picks, selectivity assay for LMP1 NF-kB inhibitor project, dose response (AID 588398); format: functional, cell-based
[12] = target: T3, Tyrosine-protein phosphatase non-receptor type 7 (Homo sapiens, UniProt P35236); format: functional
T3 sequence (P35236 whole entry): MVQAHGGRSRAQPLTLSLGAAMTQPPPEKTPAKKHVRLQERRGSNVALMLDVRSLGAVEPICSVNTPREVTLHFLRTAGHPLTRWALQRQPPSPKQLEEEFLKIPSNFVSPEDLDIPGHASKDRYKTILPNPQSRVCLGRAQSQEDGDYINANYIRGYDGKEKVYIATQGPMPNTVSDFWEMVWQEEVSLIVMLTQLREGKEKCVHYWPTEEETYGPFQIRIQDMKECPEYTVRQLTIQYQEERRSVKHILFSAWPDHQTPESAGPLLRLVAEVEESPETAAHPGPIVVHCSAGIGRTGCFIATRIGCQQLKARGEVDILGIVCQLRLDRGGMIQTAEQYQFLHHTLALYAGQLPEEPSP

[13] = target: Glyceraldehyde-3-phosphate dehydrogenase (Homo sapiens, UniProt P04406)
[14] = target: T4, Dual specificity protein phosphatase 6 (Rattus norvegicus, UniProt Q64346); format: functional
[15] = target: T4, Dual specificity protein phosphatase 6

T4 sequence (Q64346 whole entry): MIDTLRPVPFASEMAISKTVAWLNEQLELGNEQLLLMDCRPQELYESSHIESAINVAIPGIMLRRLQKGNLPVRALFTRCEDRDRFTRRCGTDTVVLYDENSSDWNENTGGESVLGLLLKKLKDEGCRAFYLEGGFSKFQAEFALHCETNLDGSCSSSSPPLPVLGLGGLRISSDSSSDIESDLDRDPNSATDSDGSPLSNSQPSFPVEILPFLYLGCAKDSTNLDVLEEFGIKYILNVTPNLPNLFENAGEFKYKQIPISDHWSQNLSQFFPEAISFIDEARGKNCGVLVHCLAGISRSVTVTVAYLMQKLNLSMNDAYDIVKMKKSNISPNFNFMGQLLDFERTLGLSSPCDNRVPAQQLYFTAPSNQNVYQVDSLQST
T2 sequence (P0AE70 whole entry): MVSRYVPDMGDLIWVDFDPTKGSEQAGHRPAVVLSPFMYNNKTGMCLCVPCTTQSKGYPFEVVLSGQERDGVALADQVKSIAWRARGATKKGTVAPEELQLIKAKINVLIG
Dual specificity protein phosphatase 3, sequence (P51452 whole entry): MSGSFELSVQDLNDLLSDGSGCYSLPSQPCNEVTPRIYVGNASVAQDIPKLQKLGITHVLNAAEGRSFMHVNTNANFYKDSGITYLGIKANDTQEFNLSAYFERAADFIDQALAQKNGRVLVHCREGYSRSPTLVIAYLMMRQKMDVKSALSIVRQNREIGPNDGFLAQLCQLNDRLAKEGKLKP
Glyceraldehyde-3-phosphate dehydrogenase, sequence (P04406 whole entry): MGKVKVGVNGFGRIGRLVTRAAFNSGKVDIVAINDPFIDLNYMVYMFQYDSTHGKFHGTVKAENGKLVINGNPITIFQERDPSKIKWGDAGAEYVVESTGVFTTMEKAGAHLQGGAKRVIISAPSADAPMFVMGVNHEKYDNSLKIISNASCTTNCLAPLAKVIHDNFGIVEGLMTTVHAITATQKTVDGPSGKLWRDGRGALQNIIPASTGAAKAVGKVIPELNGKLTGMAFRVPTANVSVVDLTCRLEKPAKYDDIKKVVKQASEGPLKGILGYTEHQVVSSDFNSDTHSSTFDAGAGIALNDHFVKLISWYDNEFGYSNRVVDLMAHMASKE
Dual specificity protein kinase CLK1, sequence (P49759 whole entry): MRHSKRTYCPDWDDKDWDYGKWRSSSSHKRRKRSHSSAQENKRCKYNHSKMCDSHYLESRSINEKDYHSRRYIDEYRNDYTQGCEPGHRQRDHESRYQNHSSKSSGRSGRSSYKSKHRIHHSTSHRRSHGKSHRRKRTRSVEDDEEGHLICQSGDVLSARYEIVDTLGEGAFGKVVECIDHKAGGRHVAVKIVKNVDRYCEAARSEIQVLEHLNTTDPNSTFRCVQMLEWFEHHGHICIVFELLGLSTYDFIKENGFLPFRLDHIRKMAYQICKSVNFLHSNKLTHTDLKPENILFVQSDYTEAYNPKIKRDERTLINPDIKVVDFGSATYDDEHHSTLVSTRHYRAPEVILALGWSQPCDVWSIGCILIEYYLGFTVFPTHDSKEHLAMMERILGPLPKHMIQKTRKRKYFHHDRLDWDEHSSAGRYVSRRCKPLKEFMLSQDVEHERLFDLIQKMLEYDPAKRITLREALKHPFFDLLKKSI
Latent membrane protein 1, sequence (P03230 whole entry): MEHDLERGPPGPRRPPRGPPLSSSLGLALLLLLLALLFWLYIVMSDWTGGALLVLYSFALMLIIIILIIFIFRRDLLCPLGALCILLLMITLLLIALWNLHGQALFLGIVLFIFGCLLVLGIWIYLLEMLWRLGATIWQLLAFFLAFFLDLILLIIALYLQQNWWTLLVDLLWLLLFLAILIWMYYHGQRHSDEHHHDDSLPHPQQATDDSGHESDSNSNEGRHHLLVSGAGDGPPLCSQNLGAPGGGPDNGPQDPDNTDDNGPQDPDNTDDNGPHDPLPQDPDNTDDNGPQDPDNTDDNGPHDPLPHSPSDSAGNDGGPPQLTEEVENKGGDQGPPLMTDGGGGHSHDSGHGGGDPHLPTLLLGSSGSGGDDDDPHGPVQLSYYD

CC1CCN(c2ccc3c(c2)S(=O)(=O)c2cccc(C(=O)NCc4ccc(F)cc4)c2C3=O)CC1
EC50 [1]: 5.16 µM (active) | EC50 [2]: 38 µM (inactive) | EC50 [3]: > 99 µM (inactive)

Cc1ccc(CN(C)c2ncnc3ccc(-c4ccc5c(c4)OCO5)cc23)o1
AC50 [4]: 11.3 µM (active) | AC50 [5]: < 0.00195 µM (active)

COc1cccc2sc(NC(=O)c3cccc(C(F)(F)F)c3)nc12
IC50 [6]: > 66 µM (inactive)

COc1ccc(C(=O)C(CN2CCOCC2)c2ccccc2)cc1F (stereo unspecified)
EC50 [7]: 8.65 µM (active) | EC50 [8]: 1.31 µM (active) | EC50 [9]: 5.54 µM (active) | AC50 (HEK293): 13.2 µM (active) | EC50 [10]: 2.19 µM (active) | AC50 [11]: 5.06 µM (active)

COCCCNc1nc(=O)n(-c2ccc(C)cc2)c(=O)[nH]1
IC50 [12]: > 100 µM (not active) | IC50 [13]: > 100 µM (not active) | IC50 [14]: > 100 µM (inactive) | IC50 [15]: > 100 µM (inactive)
